Reference: ChEMBL document CHEMBL1201862, “PubChem BioAssay data set” (2004)
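Exposure lasted 48 hours, with cells grown in 96-well plates and compounds tested at five concentrations. At the GI50, growth is halved.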 The source made the active and inactive calls. Cut-off read from the data, not from the text of the source: active = GI50 up to about 1.1 µM and inactive = higher.

What was measured:
Assay in all cases: NCI-60 cell line screen, 48 h
Malme-3M = system: Malme-3M
EKVX = system: EKVX
NCI-H226 = system: NCI-H226
NCI-H460 = system: NCI-H460
SK-OV-3 = system: SK-OV-3
SR = system: SR
MDA-MB-435 = system: MDA-MB-435
HOP-62 = system: HOP-62
A549 = system: A549
T47D = system: T47D
COLO 205 = system: COLO 205
M14 = system: M14
OVCAR-3 = system: OVCAR-3
786-0 = system: 786-0
BT-549 = system: BT-549
NCI-H23 = system: NCI-H23
UACC-257 = system: UACC-257
MDA-N = system: MDA-N
IGROV-1 = system: IGROV-1
HL-60 = system: HL-60

SMILES	GI50 (Malme-3M)	GI50 (EKVX)	GI50 (NCI-H226)	GI50 (NCI-H460)	GI50 (SK-OV-3)	GI50 (SR)	GI50 (MDA-MB-435)	GI50 (HOP-62)	GI50 (A549)	GI50 (T47D)	GI50 (COLO 205)	GI50 (M14)	GI50 (OVCAR-3)	GI50 (786-0)	GI50 (BT-549)	GI50 (NCI-H23)	GI50 (UACC-257)	GI50 (MDA-N)	GI50 (IGROV-1)	GI50 (HL-60)
CCCC(=O)OC1C(C(O)CO)OC2OC(C)(C)OC21 (stereo not given)	> 100 µM (inactive)	> 100 µM (inactive)	> 100 µM (inactive)	> 100 µM (inactive)	> 100 µM (inactive)	> 100 µM (inactive)	> 100 µM (inactive)	> 100 µM (inactive)	> 100 µM (inactive)	> 100 µM (inactive)	> 100 µM (inactive)	> 100 µM (inactive)	> 100 µM (inactive)	> 100 µM (inactive)	> 100 µM (inactive)	> 100 µM (inactive)	> 100 µM (inactive)	> 100 µM (inactive)	> 100 µM (inactive)	–
COc1cc(C2c3cc4c(cc3CC3COC(=O)N32)OCO4)cc(OC)c1OC (stereo not given)	2.83 µM (inactive)	4.76 µM (inactive)	19.5 µM (inactive)	4 µM (inactive)	3.03 µM (inactive)	1.57 µM (inactive)	0.404 µM (active)	4.12 µM (inactive)	3.08 µM (inactive)	> 100 µM (inactive)	1.92 µM (inactive)	3.37 µM (inactive)	1.93 µM (inactive)	3.09 µM (inactive)	6.27 µM (inactive)	–	26.1 µM (inactive)	0.434 µM (active)	7.13 µM (inactive)	2.08 µM (inactive)
NC(=O)NN=C1Cc2ccccc2C1	> 100 µM (inactive)	> 100 µM (inactive)	> 100 µM (inactive)	> 100 µM (inactive)	> 100 µM (inactive)	> 100 µM (inactive)	> 100 µM (inactive)	> 100 µM (inactive)	> 100 µM (inactive)	> 100 µM (inactive)	> 100 µM (inactive)	> 100 µM (inactive)	> 100 µM (inactive)	> 100 µM (inactive)	> 100 µM (inactive)	> 100 µM (inactive)	> 100 µM (inactive)	> 100 µM (inactive)	> 100 µM (inactive)	> 100 µM (inactive)
Cc1nn(C(=O)Cc2ccccc2)c2c1C(c1ccccc1[N+](=O)[O-])SC(=N)N2 (stereo not given)	> 100 µM (inactive)	> 100 µM (inactive)	> 100 µM (inactive)	> 100 µM (inactive)	> 100 µM (inactive)	> 100 µM (inactive)	> 100 µM (inactive)	> 100 µM (inactive)	> 100 µM (inactive)	> 100 µM (inactive)	> 100 µM (inactive)	> 100 µM (inactive)	–	> 100 µM (inactive)	> 100 µM (inactive)	> 100 µM (inactive)	> 100 µM (inactive)	> 100 µM (inactive)	> 100 µM (inactive)	> 100 µM (inactive)
C=CCOCn1ccc(N)nc1=O	> 100 µM (inactive)	> 100 µM (inactive)	> 100 µM (inactive)	–	> 100 µM (inactive)	> 100 µM (inactive)	> 100 µM (inactive)	> 100 µM (inactive)	> 100 µM (inactive)	> 100 µM (inactive)	> 100 µM (inactive)	> 100 µM (inactive)	–	> 100 µM (inactive)	> 100 µM (inactive)	> 100 µM (inactive)	> 100 µM (inactive)	> 100 µM (inactive)	> 100 µM (inactive)	> 100 µM (inactive)
O=C(O)CSc1n[nH]c(=O)[nH]c1=O	> 100 µM (inactive)	> 100 µM (inactive)	> 100 µM (inactive)	> 100 µM (inactive)	> 100 µM (inactive)	> 100 µM (inactive)	> 100 µM (inactive)	> 100 µM (inactive)	> 100 µM (inactive)	> 100 µM (inactive)	> 100 µM (inactive)	> 100 µM (inactive)	74.8 µM (inactive)	> 100 µM (inactive)	> 100 µM (inactive)	> 100 µM (inactive)	–	> 100 µM (inactive)	> 100 µM (inactive)	> 100 µM (inactive)
CCCCCCc1cc2cc(-c3cn4ccccc4n3)c(=O)oc2cc1O	1.71 µM (inactive)	18.4 µM (inactive)	19.1 µM (inactive)	15 µM (inactive)	13.6 µM (inactive)	5.57 µM (inactive)	5.24 µM (inactive)	11.8 µM (inactive)	16.5 µM (inactive)	19.2 µM (inactive)	> 100 µM (inactive)	5.52 µM (inactive)	4.38 µM (inactive)	2.12 µM (inactive)	10.1 µM (inactive)	5.66 µM (inactive)	18.1 µM (inactive)	6.17 µM (inactive)	11.2 µM (inactive)	30.7 µM (inactive)
O=C(c1ccc(Cl)c(Cl)c1)N(C(=O)N1CCN(c2ccccc2)CC1)S(=O)(=O)c1ccccc1	60 µM (inactive)	> 100 µM (inactive)	24.2 µM (inactive)	68.7 µM (inactive)	27 µM (inactive)	20.7 µM (inactive)	46.7 µM (inactive)	31.6 µM (inactive)	> 100 µM (inactive)	> 100 µM (inactive)	> 100 µM (inactive)	37.2 µM (inactive)	29.6 µM (inactive)	35.6 µM (inactive)	40.6 µM (inactive)	37.5 µM (inactive)	> 100 µM (inactive)	26.2 µM (inactive)	–	> 100 µM (inactive)
CCOC(=O)CN1C(=O)c2ccc(NC(=O)C(=O)O)cc2S1(=O)=O	> 100 µM (inactive)	> 100 µM (inactive)	> 100 µM (inactive)	> 100 µM (inactive)	> 100 µM (inactive)	> 100 µM (inactive)	> 100 µM (inactive)	> 100 µM (inactive)	> 100 µM (inactive)	> 100 µM (inactive)	> 100 µM (inactive)	> 100 µM (inactive)	–	> 100 µM (inactive)	> 100 µM (inactive)	> 100 µM (inactive)	> 100 µM (inactive)	> 100 µM (inactive)	> 100 µM (inactive)	> 100 µM (inactive)
CCOC(=O)c1nc2ccccc2nc1Oc1cc(OC)cc(OC)c1	> 100 µM (inactive)	60.1 µM (inactive)	> 100 µM (inactive)	39.5 µM (inactive)	> 100 µM (inactive)	> 100 µM (inactive)	> 100 µM (inactive)	69.7 µM (inactive)	> 100 µM (inactive)	> 100 µM (inactive)	81.5 µM (inactive)	> 100 µM (inactive)	> 100 µM (inactive)	35.5 µM (inactive)	> 100 µM (inactive)	–	> 100 µM (inactive)	> 100 µM (inactive)	> 100 µM (inactive)	8.41 µM (inactive)
CC(=O)OCC1OC(O[C@@H]2c3c(O)c4c(c(O)c3C3=C(NN(c5ccc([N+](=O)[O-])cc5[N+](=O)[O-])[Se]3=O)[C@@]2(C)O)C(=O)c2ccccc2C4=O)C(OC(C)=O)C(OC(C)=O)C1OC(C)=O (stereo not given in full)	0.157 µM (active)	0.23 µM (active)	0.31 µM (active)	0.192 µM (active)	0.281 µM (active)	0.179 µM (active)	0.145 µM (active)	0.189 µM (active)	0.314 µM (active)	0.286 µM (active)	0.175 µM (active)	0.254 µM (active)	0.158 µM (active)	0.147 µM (active)	0.489 µM (active)	0.251 µM (active)	0.376 µM (active)	0.273 µM (active)	0.303 µM (active)	–
COc1c(-c2nc3ccc(N4CCN(C)CC4)cc3[nH]2)cc(OC)c2[nH]c(CO)nc12	> 100 µM (inactive)	> 100 µM (inactive)	> 100 µM (inactive)	91 µM (inactive)	> 100 µM (inactive)	> 100 µM (inactive)	69.5 µM (inactive)	92.9 µM (inactive)	> 100 µM (inactive)	> 100 µM (inactive)	82.4 µM (inactive)	> 100 µM (inactive)	> 100 µM (inactive)	90.8 µM (inactive)	> 100 µM (inactive)	> 100 µM (inactive)	> 100 µM (inactive)	89.7 µM (inactive)	> 100 µM (inactive)	14.1 µM (inactive)
Cc1ccc(/N=N/c2c(O)ccc3cc(S(=O)(=O)O)cc(S(=O)(=O)O)c23)cc1	> 100 µM (inactive)	> 100 µM (inactive)	> 100 µM (inactive)	> 100 µM (inactive)	> 100 µM (inactive)	> 100 µM (inactive)	> 100 µM (inactive)	> 100 µM (inactive)	> 100 µM (inactive)	> 100 µM (inactive)	> 100 µM (inactive)	> 100 µM (inactive)	> 100 µM (inactive)	> 100 µM (inactive)	> 100 µM (inactive)	> 100 µM (inactive)	> 100 µM (inactive)	> 100 µM (inactive)	> 100 µM (inactive)	> 100 µM (inactive)
C=C(CN(C)C)C(=O)c1ccccc1	2.41 µM (inactive)	21.8 µM (inactive)	18.3 µM (inactive)	18.4 µM (inactive)	21.7 µM (inactive)	2.09 µM (inactive)	14.1 µM (inactive)	32.9 µM (inactive)	22.5 µM (inactive)	2.25 µM (inactive)	1.46 µM (inactive)	2.31 µM (inactive)	3.63 µM (inactive)	3.3 µM (inactive)	11.2 µM (inactive)	19.4 µM (inactive)	11.5 µM (inactive)	14.2 µM (inactive)	18.8 µM (inactive)	0.577 µM (active)
